Tests used:
YfiNHAMP-GGDEF = molecular target: T1, YfiNHAMP-GGDEF (Pseudomonas aeruginosa, UniProt Q9I4L5); assay: isothermal titration calorimetry; format: binding
T1 construct: gene tpbB; cytosolic HAMP-GGDEF portion, residues 183-435, C-terminal His-tag (pET24b), synthetic gene, E. coli BL21(DE3), about 28 kDa, monomeric by AUC
From the text: isothermal titration calorimetry on YfiNHAMP-GGDEF

YfiNGGDEF = molecular target: T2, YfiNGGDEF (Pseudomonas aeruginosa, UniProt Q9I4L5); assay: isothermal titration calorimetry; format: binding
T2 construct: gene tpbB
From the text: isothermal titration calorimetry on YfiNGGDEF

T1 sequence (Q9I4L5 183-435): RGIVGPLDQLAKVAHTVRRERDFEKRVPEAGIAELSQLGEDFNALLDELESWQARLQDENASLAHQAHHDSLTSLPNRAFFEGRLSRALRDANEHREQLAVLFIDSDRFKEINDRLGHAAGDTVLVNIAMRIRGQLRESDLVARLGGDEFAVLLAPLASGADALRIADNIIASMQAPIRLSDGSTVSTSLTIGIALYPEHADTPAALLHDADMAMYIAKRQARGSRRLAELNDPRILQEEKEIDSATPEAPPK
T2 sequence (Q9I4L5 232-435): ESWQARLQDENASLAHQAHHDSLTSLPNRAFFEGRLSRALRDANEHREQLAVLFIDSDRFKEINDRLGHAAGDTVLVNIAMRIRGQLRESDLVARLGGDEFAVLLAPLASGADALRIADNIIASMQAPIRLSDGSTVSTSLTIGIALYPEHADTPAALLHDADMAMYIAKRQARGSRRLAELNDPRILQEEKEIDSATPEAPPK

In the case of `Nc1nc2c(ncn2[C@@H]2O[C@H](COP(=O)(O)OP(=O)(O)OP(=O)(O)O)[C@@H](O)[C@H]2O)c(=O)[nH]1` [GTP], the Kd (YfiNHAMP-GGDEF) is reported as 180 nM and the Kd (YfiNGGDEF) is reported as 67 nM.
